Columns and labels:
[1] = target: T1, Serine/threonine-protein kinase LATS1 (Homo sapiens) (UniProt O95835); experiment: Inhibition of LATS (unknown origin) at 10 uM after 120 mins P33 radiolabeled kinase activity assay
T1 sequence (whole entry): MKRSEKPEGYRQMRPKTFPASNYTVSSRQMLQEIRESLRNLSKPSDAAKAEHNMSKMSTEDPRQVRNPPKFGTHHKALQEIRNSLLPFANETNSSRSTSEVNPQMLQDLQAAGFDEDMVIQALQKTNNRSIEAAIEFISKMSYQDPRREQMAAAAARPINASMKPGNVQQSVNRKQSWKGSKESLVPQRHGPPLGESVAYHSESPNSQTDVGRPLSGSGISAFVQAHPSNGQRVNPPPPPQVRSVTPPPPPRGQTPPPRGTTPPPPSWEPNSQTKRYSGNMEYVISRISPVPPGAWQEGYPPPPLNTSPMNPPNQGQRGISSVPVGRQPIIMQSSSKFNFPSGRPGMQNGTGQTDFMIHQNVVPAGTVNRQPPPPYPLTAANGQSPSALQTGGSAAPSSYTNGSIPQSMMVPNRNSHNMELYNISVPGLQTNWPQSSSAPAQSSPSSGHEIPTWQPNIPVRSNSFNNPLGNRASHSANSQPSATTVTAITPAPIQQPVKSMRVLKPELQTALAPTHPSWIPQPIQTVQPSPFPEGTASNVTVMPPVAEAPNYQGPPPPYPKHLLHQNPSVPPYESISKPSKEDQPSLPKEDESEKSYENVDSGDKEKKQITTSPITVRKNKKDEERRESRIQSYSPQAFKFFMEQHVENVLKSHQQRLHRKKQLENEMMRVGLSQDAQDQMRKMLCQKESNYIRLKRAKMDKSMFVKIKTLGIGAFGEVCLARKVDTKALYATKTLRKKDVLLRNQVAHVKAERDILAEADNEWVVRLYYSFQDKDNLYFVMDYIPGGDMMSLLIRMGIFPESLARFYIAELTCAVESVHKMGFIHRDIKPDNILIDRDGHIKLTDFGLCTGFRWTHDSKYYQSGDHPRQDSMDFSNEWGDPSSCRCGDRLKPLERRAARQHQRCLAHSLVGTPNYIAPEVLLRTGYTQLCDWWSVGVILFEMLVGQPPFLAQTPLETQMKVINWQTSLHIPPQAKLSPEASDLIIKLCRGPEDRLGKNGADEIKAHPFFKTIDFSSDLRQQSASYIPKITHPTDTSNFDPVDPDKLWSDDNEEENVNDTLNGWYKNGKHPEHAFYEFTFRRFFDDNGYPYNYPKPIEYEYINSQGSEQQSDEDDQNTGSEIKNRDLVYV

[2] = target: cAMP-dependent protein kinase (PKA) (Homo sapiens) (UniProt P22694+P17612+P22612); experiment: Inhibition of PKA (unknown origin) at 10 uM after 120 mins P33 radiolabeled kinase activity assay; assay type: protein assay
Homo sapiens = species: Homo sapiens; experiment: Inhibition of PKCbeta1 (unknown origin) at 10 uM after 120 mins P33 radiolabeled kinase activity assay
[3] = target: Serine/threonine-protein kinase PLK1 (Homo sapiens) (UniProt P53350); experiment: Inhibition of PLK1 (unknown origin) at 10 uM after 120 mins P33 radiolabeled kinase activity assay
[4] = target: T2, Dual serine/threonine and tyrosine protein kinase (Homo sapiens) (UniProt Q6XUX3); experiment: Inhibition of RIPK5 (unknown origin) at 10 uM after 120 mins P33 radiolabeled kinase activity assay
T2 sequence (whole entry): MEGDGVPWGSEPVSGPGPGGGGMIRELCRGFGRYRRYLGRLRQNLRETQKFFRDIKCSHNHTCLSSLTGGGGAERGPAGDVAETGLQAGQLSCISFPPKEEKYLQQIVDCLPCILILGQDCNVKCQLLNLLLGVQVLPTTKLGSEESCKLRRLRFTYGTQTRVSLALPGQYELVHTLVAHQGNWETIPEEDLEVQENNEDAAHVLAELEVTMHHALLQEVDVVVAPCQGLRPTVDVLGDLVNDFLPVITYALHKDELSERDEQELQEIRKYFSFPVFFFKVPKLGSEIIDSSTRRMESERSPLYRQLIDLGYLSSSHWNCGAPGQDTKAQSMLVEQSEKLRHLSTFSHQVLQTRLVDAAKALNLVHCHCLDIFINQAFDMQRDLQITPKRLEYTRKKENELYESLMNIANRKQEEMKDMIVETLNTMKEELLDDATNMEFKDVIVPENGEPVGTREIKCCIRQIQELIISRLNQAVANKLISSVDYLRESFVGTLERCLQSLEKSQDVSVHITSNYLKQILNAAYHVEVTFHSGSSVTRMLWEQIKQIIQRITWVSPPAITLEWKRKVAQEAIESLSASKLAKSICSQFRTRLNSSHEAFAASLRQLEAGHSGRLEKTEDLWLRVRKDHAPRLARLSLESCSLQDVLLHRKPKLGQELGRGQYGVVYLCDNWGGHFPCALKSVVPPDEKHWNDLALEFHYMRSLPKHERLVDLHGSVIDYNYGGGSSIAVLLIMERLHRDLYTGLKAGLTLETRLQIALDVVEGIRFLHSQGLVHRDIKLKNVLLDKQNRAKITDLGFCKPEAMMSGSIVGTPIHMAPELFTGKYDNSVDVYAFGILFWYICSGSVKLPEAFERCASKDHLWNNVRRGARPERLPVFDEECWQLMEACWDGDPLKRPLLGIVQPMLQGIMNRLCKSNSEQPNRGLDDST

Serine/threonine-protein kinase PLK1 (Homo sapiens), sequence (P53350 whole entry): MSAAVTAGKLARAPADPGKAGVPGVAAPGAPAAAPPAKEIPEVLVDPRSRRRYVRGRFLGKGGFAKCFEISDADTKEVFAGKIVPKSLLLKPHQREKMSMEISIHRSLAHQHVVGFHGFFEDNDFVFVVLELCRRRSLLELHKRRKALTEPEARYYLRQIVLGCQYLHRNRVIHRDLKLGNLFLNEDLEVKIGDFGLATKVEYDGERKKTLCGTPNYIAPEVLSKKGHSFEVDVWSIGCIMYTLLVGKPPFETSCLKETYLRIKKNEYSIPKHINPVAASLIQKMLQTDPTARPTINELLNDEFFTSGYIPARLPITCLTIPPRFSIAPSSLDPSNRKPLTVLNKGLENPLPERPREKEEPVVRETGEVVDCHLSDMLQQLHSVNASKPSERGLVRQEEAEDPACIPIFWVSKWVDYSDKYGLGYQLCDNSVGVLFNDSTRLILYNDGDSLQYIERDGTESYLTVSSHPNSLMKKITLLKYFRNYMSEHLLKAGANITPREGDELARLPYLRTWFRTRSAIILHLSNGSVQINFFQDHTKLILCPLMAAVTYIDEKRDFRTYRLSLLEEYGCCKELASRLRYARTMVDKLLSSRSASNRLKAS

Row | inhibition [1] [%] | inhibition [2] [%] | inhibition (Homo sapiens) [%] | inhibition [3] [%] | inhibition [4] [%] | Structure (SMILES)
1 | 11 | 6.72 | -3.18 | 5.27 | 25 | CS(=O)(=O)c1cccc(Nc2nccc(-c3sc(N4CCOCC4)nc3-c3cccc(NS(=O)(=O)c4c(F)cccc4F)c3)n2)c1
2 | 3.53 | 7.76 | 3 | -0.52 | -4.89 | COCCNC(=O)c1ccc2c(c1)nc(-c1cnc(-c3ccc(Cl)cc3)[nH]1)n2CCOC
3 | 9.91 | 80.5 | -4.39 | 1.09 | -0.31 | CC(C)(C)c1cc(NC(=O)Nc2ccc(Oc3ccncc3)cc2)no1
